Assays:
[1] = target: T1, Peroxisome proliferator-activated receptor alpha (Homo sapiens, UniProt Q07869); assay: Agonist activity at human PPARalpha ligand binding domain expressed in human 293T cells co-transfected with Gal4-DBD by luciferase transactivation assay; type: cell-based
T1 sequence (Q07869 whole entry): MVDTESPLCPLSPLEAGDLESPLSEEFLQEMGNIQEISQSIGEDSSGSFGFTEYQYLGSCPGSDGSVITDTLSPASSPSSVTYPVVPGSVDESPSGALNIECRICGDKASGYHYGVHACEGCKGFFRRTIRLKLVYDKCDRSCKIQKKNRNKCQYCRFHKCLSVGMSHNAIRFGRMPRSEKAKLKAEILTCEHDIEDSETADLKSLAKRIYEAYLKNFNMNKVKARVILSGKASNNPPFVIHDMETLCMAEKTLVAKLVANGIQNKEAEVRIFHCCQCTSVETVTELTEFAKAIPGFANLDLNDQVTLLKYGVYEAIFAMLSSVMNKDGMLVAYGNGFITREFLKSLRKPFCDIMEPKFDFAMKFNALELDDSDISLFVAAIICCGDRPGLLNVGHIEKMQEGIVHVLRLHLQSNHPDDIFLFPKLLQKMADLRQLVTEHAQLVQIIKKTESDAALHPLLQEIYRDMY

[2] = target: T2, Peroxisome proliferator-activated receptor gamma (Homo sapiens, UniProt P37231); type: cell-based, 293T
T2 sequence (P37231 whole entry): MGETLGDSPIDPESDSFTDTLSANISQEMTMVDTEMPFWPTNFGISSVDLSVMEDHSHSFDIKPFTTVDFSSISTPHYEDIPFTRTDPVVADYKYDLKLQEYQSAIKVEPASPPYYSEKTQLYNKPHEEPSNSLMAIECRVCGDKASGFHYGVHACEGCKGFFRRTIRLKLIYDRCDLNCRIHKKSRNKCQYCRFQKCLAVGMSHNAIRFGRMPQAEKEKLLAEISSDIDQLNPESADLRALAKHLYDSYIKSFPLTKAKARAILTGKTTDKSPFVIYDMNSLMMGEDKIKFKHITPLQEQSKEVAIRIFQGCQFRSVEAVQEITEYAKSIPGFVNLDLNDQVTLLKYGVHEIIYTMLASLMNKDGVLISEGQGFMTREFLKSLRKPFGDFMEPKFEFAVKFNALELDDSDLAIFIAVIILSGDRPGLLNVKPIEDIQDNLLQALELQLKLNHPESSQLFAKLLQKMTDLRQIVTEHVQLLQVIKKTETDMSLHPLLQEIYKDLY

[3] = target: T3, Peroxisome proliferator-activated receptor delta (Homo sapiens, UniProt Q03181)
T3 sequence (Q03181 whole entry): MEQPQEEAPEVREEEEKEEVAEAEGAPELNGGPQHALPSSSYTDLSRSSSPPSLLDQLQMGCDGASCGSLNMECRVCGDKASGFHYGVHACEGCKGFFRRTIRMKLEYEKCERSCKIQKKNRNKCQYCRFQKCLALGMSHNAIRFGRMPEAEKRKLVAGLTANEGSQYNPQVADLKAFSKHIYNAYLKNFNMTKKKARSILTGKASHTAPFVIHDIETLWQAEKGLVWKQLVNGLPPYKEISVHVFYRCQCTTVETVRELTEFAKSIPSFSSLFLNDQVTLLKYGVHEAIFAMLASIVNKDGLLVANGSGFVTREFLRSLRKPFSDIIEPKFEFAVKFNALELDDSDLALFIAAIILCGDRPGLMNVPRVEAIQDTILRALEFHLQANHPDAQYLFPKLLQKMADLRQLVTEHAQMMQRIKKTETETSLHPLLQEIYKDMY

| SMILES | EC50 ([1]; read-out: EC50) [µM] | EC50 ([2]; read-out: EC50) [µM] | EC50 [3] [µM] | EC50 ([1]; 293t) | EC50 ([2]; 293t) |
| --- | --- | --- | --- | --- | --- |
| Cc1cc(OCc2nc(-c3ccc(C(F)(F)F)cc3)c(-c3ccc(OC(F)(F)F)cc3)s2)ccc1OCC(=O)O | > 10 | > 10 | 0.331 | – | – |
| COc1ccc(-c2nc(COc3ccc(OCC(=O)O)c(C)c3)sc2-c2ccc(-c3ccccc3)c(C(F)(F)F)c2)cc1 | > 10 | > 10 | 0.25 | – | – |
| Cc1cc(OCc2nc(-c3ccc(-c4ccccc4)cc3)c(-c3ccc(OC(F)(F)F)cc3)s2)ccc1OCC(=O)O | > 10 | > 10 | 0.16 | – | – |
| COc1ccc(-c2nc(COc3ccc(OCC(=O)O)c(C)c3)sc2-c2ccc(OC)c(Cl)c2)cc1 | > 10 | > 10 | 0.13 | – | – |
| COc1ccc(-c2nc(COc3ccc(OCC(=O)O)c(C)c3)sc2-c2ccc(C(C)(C)C)cc2)cc1 | > 10 | > 10 | 0.72 | – | – |
| COc1ccc(-c2nc(COc3ccc(OCC(=O)O)c(C)c3)oc2-c2ccc(-c3ccccc3)cc2)cc1 | > 10 | > 10 | 0.01 | – | – |
| Cc1cc(OCc2nc(-c3ccc(Cl)cc3)cs2)ccc1OCC(=O)O | > 10 | > 10 | 4.71 | – | – |
| Cc1ccc(-c2csc(COc3ccc(OCC(=O)O)c(C)c3)n2)cc1 | > 10 | > 10 | > 10 | – | – |
| COc1ccc(-c2nc(COc3ccc4c(c3)CC(C(=O)O)O4)sc2-c2ccc(C(F)(F)F)cc2)cc1 (configuration not stated) | > 10 | > 10 | 0.46 | – | – |
| COc1ccc(-c2nc(COc3ccc(OCC(=O)O)c(C)c3)sc2-c2cccc(C(F)(F)F)c2)cc1 | > 10 | > 10 | 0.07 | – | – |
| COc1ccc(-c2nc(SCCCOc3ccc(CC(=O)O)cc3Cl)sc2-c2ccc(OC)cc2)cc1 | – | 4.61 | – | – | – |
| COc1ccc(-c2nc(CSc3ccc(CC(=O)O)cc3Cl)sc2-c2ccc(C(F)(F)F)cc2)cc1 | > 10 | > 10 | 0.062 | – | – |
| COc1ccc(-c2nc(COc3ccc(OCC(=O)O)cc3C)sc2-c2ccc(C(F)(F)F)cc2)cc1 | > 10 | > 10 | 2.26 | – | – |
| CCCCOc1ccc(-c2nc(COc3ccc(OCC(=O)O)c(C)c3)sc2-c2ccc(OC(F)(F)F)cc2)cc1 | > 10 | > 10 | 0.026 | – | – |
| COc1ccc(-c2nc(Sc3cccc(C(C)C(=O)O)c3)sc2-c2ccc(OC)cc2)cc1 (configuration not stated) | 0.3 | 2.3 | 3.2 | – | – |
| COc1ccc(-c2nc(COc3ccc(OCC(=O)O)c(C)c3)sc2-c2ccc(-c3ccccc3)cc2)cc1 | > 10 | > 10 | 0.01 | – | – |
| COc1ccc(-c2nc(SCc3ccc(CC(=O)O)cc3Cl)sc2-c2ccc(OC)cc2)cc1 | – | > 10 | – | – | – |
| COc1ccc(-c2nc(COc3ccc(OCC(=O)O)c(C)c3)sc2-c2ccccc2)cc1 | > 10 | > 10 | 0.19 | – | – |
| Cc1cc(OCc2nc(C)c(-c3ccc(Cl)cc3)s2)ccc1OCC(=O)O | > 10 | > 10 | 0.32 | – | – |
| CCCOc1ccc(-c2nc(COc3ccc(OCC(=O)O)c(C)c3)sc2-c2ccc(OC(F)(F)F)cc2)cc1 | > 10 | > 10 | 0.035 | – | – |
| COc1ccc(-c2nc(COc3ccc(OCC(=O)O)c(C)c3)sc2-c2ccc(OC(F)(F)F)cc2)cc1F | > 10 | > 10 | 0.056 | – | – |
| Cc1cc(CN(CC(=O)Nc2ccc(Cl)cc2Cl)C2CCCCC2)ccc1OCC(=O)O | – | – | 0.003 | Not Active | Not Active |
| COc1ccc(-c2sc(COc3ccc(OCC(=O)O)c(C)c3)nc2-c2ccccc2)cc1 | > 10 | > 10 | 2.62 | – | – |
| COc1ccc(-c2nc(COc3ccc(OCC(=O)O)c(C)c3)sc2-c2ccc(OC(F)(F)F)cc2)cc1 | > 10 | > 10 | 0.02 | – | – |
| Cc1cc(OCc2nc(-c3ccc(N4CCOCC4)cc3)c(-c3ccc(OC(F)(F)F)cc3)s2)ccc1OCC(=O)O | > 10 | > 10 | 0.045 | – | – |

| SMILES | EC50 ([1]; read-out: EC50) [µM] | EC50 ([2]; read-out: EC50) [µM] | EC50 [3] [µM] | EC50 ([1]; 293t) | EC50 ([2]; 293t) |
| --- | --- | --- | --- | --- | --- |
| COc1cccc(-c2nc(COc3ccc(OCC(=O)O)c(C)c3)sc2-c2ccc(OC(F)(F)F)cc2)c1 | > 10 | > 10 | 0.12 | – | – |
| Cc1cc(OCc2nc(-c3ccccc3)c(-c3ccc(Cl)cc3)s2)ccc1OCC(=O)O | > 10 | > 10 | 0.13 | – | – |
| COc1ccc(-c2nc(COc3ccc(OCC(=O)O)c4ccccc34)sc2-c2ccc(C(F)(F)F)cc2)cc1 | > 10 | > 10 | 2.93 | – | – |
| COc1ccc(-c2nc(COc3ccc(OCC(=O)O)c(C)c3)sc2-c2ccccc2C(F)(F)F)cc1 | > 10 | > 10 | > 10 | – | – |
| Cc1cc(OCc2nc(-c3ccc(C(=O)N(C)C)cc3)c(-c3ccc(OC(F)(F)F)cc3)s2)ccc1OCC(=O)O | > 10 | > 10 | 0.023 | – | – |
| COc1ccc(-c2nc(COc3ccc(OCC(=O)O)c(C)c3)oc2-c2ccc(Cl)cc2)cc1 | > 10 | > 10 | 0.05 | – | – |
| Cc1cc(OCc2nc(-c3ccc4c(c3)OCCCO4)c(-c3ccc(OC(F)(F)F)cc3)s2)ccc1OCC(=O)O | > 10 | > 10 | 0.013 | – | – |
| Cc1cc(OCc2nc(-c3ccc(-c4ccccc4)cc3)c(-c3ccc(-c4ccccc4)cc3)s2)ccc1OCC(=O)O | > 10 | > 10 | 0.13 | – | – |
| Cc1ccc(-c2sc(COc3ccc(OCC(=O)O)c(C)c3)nc2C)cc1 | > 10 | > 10 | 6.32 | – | – |
| CCC(C)Oc1ccc(-c2nc(COc3ccc(OCC(=O)O)c(C)c3)sc2-c2ccc(OC(F)(F)F)cc2)cc1 (configuration not stated) | > 10 | > 10 | 0.018 | – | – |
| COc1ccc(-c2nc(COc3ccc(CC(=O)O)cc3Cl)sc2-c2ccc(OC)cc2)cc1 | – | > 10 | – | – | – |
| COc1ccc(-c2nc(CSc3ccc(OCC(=O)O)c(C)c3)sc2-c2ccc(OC)cc2)cc1 | > 10 | > 10 | 0.47 | – | – |
| COc1ccc(-c2nc(COc3ccc(OCC(=O)O)c(C)c3)oc2-c2ccc(Cl)c(Cl)c2)cc1 | > 10 | > 10 | 0.07 | – | – |
| Cc1cc(OCc2nc(-c3cccnc3)c(-c3ccc(OC(F)(F)F)cc3)o2)ccc1OCC(=O)O | > 10 | > 10 | 0.007 | – | – |
| CCCc1ccc(-c2oc(COc3ccc(OCC(=O)O)c(C)c3)nc2-c2ccc(OC)cc2)cc1 | > 10 | > 10 | 0.01 | – | – |
| Cc1cc(OCc2nc(-c3ccc(C(F)(F)F)cc3)c(-c3ccc(C(F)(F)F)cc3)s2)ccc1OCC(=O)O | > 10 | > 10 | 0.35 | – | – |
| COc1ccc(-c2nc(SCc3ccc(OCC(=O)O)c(C)c3)sc2-c2ccc(OC)cc2)cc1 | > 10 | > 10 | 5.67 | – | – |
| COc1ccc(-c2nc(COc3ccc(OCC(=O)O)c(C)c3)oc2-c2cccc(C(F)(F)F)c2)cc1 | > 10 | > 10 | 0.65 | – | – |
| COc1ccc(-c2sc(COc3ccc(OCC(=O)O)c(C)c3)nc2C)cc1 | > 10 | > 10 | > 10 | – | – |
| COc1ccc(-c2nc(SCCCCOc3ccc(CC(=O)O)cc3Cl)sc2-c2ccc(OC)cc2)cc1 | – | 2.56 | – | – | – |
| COc1ccc(-c2nc(Sc3ccc(CC(=O)O)cc3Cl)sc2-c2ccc(OC)cc2)cc1 | – | > 10 | – | – | – |
| Cc1cc(OCc2cc(-c3ccc(C(F)(F)F)cc3)cc(-c3ccc(C(F)(F)F)cc3)c2)ccc1OCC(=O)O | > 10 | > 10 | – | – | – |
| COc1ccc(-c2nc(SCCOc3ccc(CC(=O)O)cc3Cl)sc2-c2ccc(OC)cc2)cc1 | – | 5.87 | – | – | – |
| CCCc1c(OCCCSc2ccc(CC(=O)O)cc2Cl)ccc2c(CC)noc12 [L-165461] | 1.3 | – | – | – | – |

Source: ChEMBL document CHEMBL1153748 (J Med Chem, 2010)
